{"source": "patent US12234245B2", "about": "“Sulfonimidamide compounds as inhibitors of interleukin-1 activity” (Genentech, Inc., priority 2018, dated 2025)"}
{"target": "NLRP3 inflammasome (Homo sapiens, UniProt Q96P20)", "sequence (Q96P20 whole entry)": "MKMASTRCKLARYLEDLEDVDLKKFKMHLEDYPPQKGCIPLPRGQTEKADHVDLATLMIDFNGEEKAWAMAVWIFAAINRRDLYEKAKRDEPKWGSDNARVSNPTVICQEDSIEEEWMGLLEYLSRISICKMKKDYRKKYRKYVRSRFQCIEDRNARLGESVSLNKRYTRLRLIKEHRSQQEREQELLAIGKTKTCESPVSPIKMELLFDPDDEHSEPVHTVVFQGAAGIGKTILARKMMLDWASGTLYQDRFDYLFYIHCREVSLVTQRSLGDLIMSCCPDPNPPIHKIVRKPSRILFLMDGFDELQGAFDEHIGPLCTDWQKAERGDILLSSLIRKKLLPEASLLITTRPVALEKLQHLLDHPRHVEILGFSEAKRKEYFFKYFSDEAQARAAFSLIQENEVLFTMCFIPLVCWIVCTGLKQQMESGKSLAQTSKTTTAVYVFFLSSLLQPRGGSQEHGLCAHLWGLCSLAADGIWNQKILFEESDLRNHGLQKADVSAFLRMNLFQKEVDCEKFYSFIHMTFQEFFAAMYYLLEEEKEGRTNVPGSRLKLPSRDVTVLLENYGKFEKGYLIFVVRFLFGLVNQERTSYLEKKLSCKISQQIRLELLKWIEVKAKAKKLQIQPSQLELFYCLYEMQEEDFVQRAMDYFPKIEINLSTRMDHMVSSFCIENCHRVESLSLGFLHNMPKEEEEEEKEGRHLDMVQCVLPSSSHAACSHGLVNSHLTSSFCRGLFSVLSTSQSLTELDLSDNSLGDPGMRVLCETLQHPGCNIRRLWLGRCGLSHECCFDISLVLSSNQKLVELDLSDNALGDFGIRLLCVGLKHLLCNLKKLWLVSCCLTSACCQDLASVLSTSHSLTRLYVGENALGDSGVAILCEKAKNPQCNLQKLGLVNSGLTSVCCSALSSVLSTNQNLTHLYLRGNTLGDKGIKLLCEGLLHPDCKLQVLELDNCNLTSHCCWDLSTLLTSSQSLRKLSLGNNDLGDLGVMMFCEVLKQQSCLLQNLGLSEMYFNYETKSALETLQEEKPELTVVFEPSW", "assay": "THP-1 ASC-GFP speck assay", "format": "cell-based", "parameters": "host or cells: THP-1 ASC-GFP cells, PMA-differentiated, LPS-primed, nigericin-stimulated", "conditions": "THP-1 ASC-GFP cells, PMA differentiated, LPS primed, 10 μM nigericin; read-out: THP1 ASC Speck IC50", "procedure": "THP-1 ASC-GFP cell line was purchased from Invivogen, San Diego, for inflammasome activation assay. THP-1 ASC-GFP cells stably express a 37.6 kDa ASC::GFP fusion protein that enables monitoring of spec formation by microscopy after activation of NLRP3 dependent inflammasome pathway. Cells were maintained at a density of 600,000 cells/mL in growth media consisting of RPMI 1640, 2 mM L-glutamine, 25 mM HEPES and 10% heat inactivated fetal bovine serum at 37° C. and 5% CO2. Cells were passaged every 3-4 days and used for assays for up to 20 passages.\nTHP-1 ASC-GFP cells were collected by centrifuging cells at 800 RPM for 5 minutes. Cell culture supernatant was removed and cells were re-suspended in fresh media at density of 1×10^6 cells/mL in assay media consisting of RPMI 1640, 2 mM L-glutamine, 25 mM HEPES and 10% heat inactivated fetal bovine serum. Phorbol 12-myristate 13-acetate (PMA) (Invivogen, tlrl-pma) was added to the cell suspension at a final concentration of 500 ng/ml and mixed thoroughly. 40,000 cells were added per well of a 384 well plate and differentiated into macrophages overnight at 37° C. and 5% CO2. Cells were primed with 1 μg/mL of lipopolysaccharide (Invivogen Ultrapure lipopolysaccharide from E. coli, tlrl-3pelps) in assay media for 3 hours at 37° C. and 5% CO2. After priming, media was removed and THP-1 ASC-GFP cells were preincubated with serially diluted test compounds with starting concentration of 40 μM followed by 2-fold dilution for a 20-point curve or vehicle (DMSO) for 30 min in assay media at 37° C. and 5% CO2. Cells were then stimulated with 10 μM nigericin (Invivogen, tlrl-nig-5) for 90 min at 37° C. and 5% CO2 to activate NLRP3 dependent inflammasome pathway and spec formation. After stimulation, cells were fixed with 4.8% paraformaldehyde (Electron Microscopy Sciences #15710-S) and incubated at room temperature for 15 min. Cells were then washed 3-times with 100 μL of phosphate buffered saline and permeabilized in the presence of premeablization/block buffer for 20 min at room temperature. Cells were then washed 3-times with 100 μL phosphate buffered saline and incubated for 1 hr at room temperature in the presence of hoechst. After staining with Hoechst, cells were washed 3-times with 100 μL phosphate buffered saline and imaged for ASC spec formation.\nTHP-1 ASC-GFP cells were imaged in 488 and Hoechst channels. Hoechst channel was used for cell count and 488 channel was used to identify number of GFP ASC specks in imaged fields. Percentage of cells with a spec was calculated by dividing the number of GFP positive spots by total number of cells.", "units": {"IC50": "µM"}}
{"smiles": "CNC1CCn2ncc(S(N)(=O)=NC(=O)Nc3c4c(cc5c3CCC5)CCC4)c2OC1", "note": "(single isomer, unassigned) [Example 132]", "IC50": 1.2}
{"smiles": "COc1cc(-c2ccc(NC(=O)N=S(N)(=O)c3cnn4c3OCC(OC)C4)c3c2CCC3)ccn1", "note": "(single isomer, unassigned) [Example 151]", "IC50": "> 20"}
{"smiles": "CC1(C)COc2c(S(N)(=O)=NC(=O)Nc3c4c(cc5c3CC(F)C5)CCC4)cnn2C1", "note": "(single isomer, unassigned) [Example 153]", "IC50": 1.4}
{"smiles": "COC1CCOc2c(S(N)(=O)=NC(=O)Nc3c4c(cc5c3CCC5)CCC4)cnn2C1", "note": "(single isomer, unassigned) [Example 90]", "IC50": 0.32}
{"smiles": "NS(=O)(=NC(=O)Nc1c2c(cc3c1CCC3)CCC2)c1cnn2c1COCCC2", "note": "(single isomer, unassigned) [Example 62]", "IC50": 0.92}
{"smiles": "NS(=O)(=NC(=O)Nc1c2c(cc3c1CCC3)CCC2)c1cnn2c1CCOCC2", "note": "(single isomer, unassigned) [Example 118]", "IC50": "> 20"}
{"smiles": "CNCc1cc(C(C)C)c(NC(=O)N=S(N)(=O)c2cnn3c2OCCC3)c(C(C)C)n1", "note": "(single isomer, unassigned) [Example 84]", "IC50": "> 20"}
{"smiles": "CC1(C)Cn2ncc(S(N)(=O)=NC(=O)Nc3c4c(cc5c3CCC5)CCC4)c2O1", "note": "(single isomer, unassigned) [Example 140]", "IC50": 0.56}
{"smiles": "NS(=O)(=NC(=O)Nc1c2c(cc3c1CCC3)CCC2)c1cnn2c1NCCC2", "note": "(single isomer, unassigned) [Example 72]", "IC50": 2.5}
{"smiles": "CC(C)c1nn(CC(F)F)c(C(C)C)c1NC(=O)N=S(N)(=O)c1cnn2c1OCCC2", "note": "(single isomer, unassigned) [Example 97]", "IC50": 1.3}
{"smiles": "COC1CCn2ncc(S(N)(=O)=NC(=O)Nc3c4c(cc5c3CCC5)CCC4)c2OC1", "note": "(single isomer, unassigned) [Example 87]", "IC50": 2.9}
{"smiles": "CNC1CCOc2c(S(N)(=O)=NC(=O)Nc3c4c(cc5c3CCC5)CCC4)cnn2C1", "note": "(single isomer, unassigned) [Example 109]", "IC50": 5.7}
{"smiles": "CNC1COc2c(S(N)(=O)=NC(=O)Nc3c4c(c(F)c5c3CCC5)CCC4)cnn2C1", "note": "(single isomer, unassigned) [Example 82]", "IC50": 0.27}
{"smiles": "CN1CCCn2ncc(S(N)(=O)=NC(=O)Nc3c4c(cc5c3CCC5)CCC4)c21", "note": "(single isomer, unassigned) [Example 107]", "IC50": 9}
{"smiles": "NS(=O)(=NC(=O)Nc1c2c(cc3c1CCC3)CCC2)c1cnn2c1CCOCC2", "note": "(single isomer, unassigned) [Example 117]", "IC50": 4.3}
{"smiles": "CC1(C)Cn2ncc(S(N)(=O)=NC(=O)Nc3c4c(cc5c3CCC5)CCC4)c2O1", "note": "(single isomer, unassigned) [Example 139]", "IC50": 0.0043}
{"smiles": "COc1cc(-c2ccc(NC(=O)N=S(N)(=O)c3cnn4c3OCC(OC)C4)c3c2CCC3)ccn1", "note": "(single isomer, unassigned) [Example 152]", "IC50": 4.1}
{"smiles": "CNCc1cc(C(C)C)c(NC(=O)N=S(N)(=O)c2cnn3c2OCCC3)c(C(C)C)n1", "note": "(single isomer, unassigned) [Example 85]", "IC50": "> 20"}
{"smiles": "COC1COc2c(S(N)(=O)=NC(=O)Nc3c4c(cc5c3C(C)CC5)CCC4)cnn2C1", "note": "(single isomer, unassigned) [Example 148]", "IC50": 0.71}
{"smiles": "COc1cc(C(C)C)c(NC(=O)N=S(N)(=O)c2cnn3c2OCC(C)(C)C3)c(C(C)C)n1", "note": "(single isomer, unassigned) [Example 77]", "IC50": "> 20"}
{"smiles": "CO[C@H]1CCOc2c([S@@](=O)(=NC(=O)Nc3c4c(cc5c3CCC5)CCC4)NC#N)cnn2C1", "note": "(single isomer, unassigned) [Example 112]", "IC50": 0.61}
{"smiles": "NS(=O)(=NC(=O)Nc1c2c(cc3c1CC3)CCC2)c1cnn2c1OCCC2", "note": "(single isomer, unassigned) [Example 142]", "IC50": 0.084}
{"smiles": "CC1CCc2cc3c(c(NC(=O)N=S(N)(=O)c4cnn5c4OCC(C)(C)C5)c21)CCC3", "note": "(single isomer, unassigned) [Example 136]", "IC50": 3.8}
{"smiles": "CC1CCn2ncc(S(N)(=O)=NC(=O)Nc3c4c(cc5c3CCC5)CCC4)c2OC1", "note": "(single isomer, unassigned) [Example 74]", "IC50": "> 20"}
{"smiles": "COc1cc(C(C)C)c(NC(=O)N=S(N)(=O)c2cnn3c2OCCC3)c(C(C)C)n1", "note": "(single isomer, unassigned) [Example 103]", "IC50": "> 20"}
{"smiles": "CC1CCn2ncc(S(N)(=O)=NC(=O)Nc3c4c(cc5c3CCC5)CCC4)c2OC1", "note": "(single isomer, unassigned) [Example 78]", "IC50": 0.093}
{"smiles": "COC1CCn2ncc(S(N)(=O)=NC(=O)Nc3c4c(cc5c3CCC5)CCC4)c2OC1", "note": "(single isomer, unassigned) [Example 93]", "IC50": 0.36}
{"smiles": "CC1CCc2cc3c(c(NC(=O)N=S(N)(=O)c4cnn5c4OCCC5)c21)CCC3", "note": "(single isomer, unassigned) [Example 129]", "IC50": 0.019}
{"smiles": "NS(=O)(=NC(=O)Nc1c2c(cc3c1CCC3)CCC2)c1cnn2c1SCCC2", "note": "(single isomer, unassigned) [Example 100]", "IC50": 2.7}
{"smiles": "CC(C)c1nn(CC2CC2)c(C(C)C)c1NC(=O)N=S(N)(=O)c1cnn2c1OCCC2", "note": "(single isomer, unassigned) [Example 113]", "IC50": "> 20"}
{"smiles": "COc1cc(-c2cc(F)cc(C(C)C)c2NC(=O)N=S(N)(=O)c2cnn3c2OCCC3)ccn1", "note": "(single isomer, unassigned) [Example 119]", "IC50": 0.058}
{"smiles": "COc1cc(-c2cc(F)cc(C(C)C)c2NC(=O)N=S(N)(=O)c2cnn3c2OCCC3)ccn1", "note": "(single isomer, unassigned) [Example 120]", "IC50": 1.2}
{"smiles": "COC1COc2c(S(N)(=O)=NC(=O)Nc3c4c(cc5c3C(C)CC5)CCC4)cnn2C1", "note": "(single isomer, unassigned) [Example 150]", "IC50": 0.024}
{"smiles": "CC1CCc2cc3c(c(NC(=O)N=S(N)(=O)c4cnn5c4OCC5)c21)CCC3", "note": "(single isomer, unassigned) [Example 146]", "IC50": 2.6}
{"smiles": "NS(=O)(=NC(=O)Nc1c2c(cc3c1CCC3)CCC2)c1cnn2c1SCCC2", "note": "(single isomer, unassigned) [Example 101]", "IC50": "> 20"}
{"smiles": "CC1(C)COc2c(S(N)(=O)=NC(=O)Nc3c4c(cc5c3CCC5)CCC4)cnn2C1", "note": "(single isomer, unassigned) [Example 81]", "IC50": 0.02}
{"smiles": "N#CNS(=O)(=NC(=O)Nc1c2c(cc3c1CCC3)CCC2)c1cnn2c1OCCC2", "note": "(single isomer, unassigned) [Example 69]", "IC50": 0.03}
{"smiles": "CN1CCCn2ncc(S(N)(=O)=NC(=O)Nc3c4c(cc5c3CCC5)CCC4)c21", "note": "(single isomer, unassigned) [Example 108]", "IC50": "> 20"}
{"smiles": "COC1CCOc2c(S(N)(=O)=NC(=O)Nc3c4c(cc5c3CCC5)CCC4)cnn2C1", "note": "(single isomer, unassigned) [Example 91]", "IC50": 0.49}
{"smiles": "CN(C)[C@@H]1COc2c([S@@](=O)(=NC(=O)Nc3c4c(c(F)c5c3CCC5)CCC4)NC#N)cnn2C1", "note": "[Example 104, (R,6S)—N-cyano-6-(dimethylamino)-N′-((8-fluoro-1,2,3,5,6,7-hexahydro-s-indacen-4-yl)carbamoyl)-6,7-dihydro-5H-pyrazolo[5,1-b][1,3]oxazine-3-sulfonimidamide]", "IC50": 0.32}
{"smiles": "COC1COc2c(S(N)(=O)=NC(=O)Nc3c4c(cc5c3C(C)CC5)CCC4)cnn2C1", "note": "(single isomer, unassigned) [Example 147]", "IC50": "> 20"}
{"smiles": "CC1(C)COc2c(S(=O)(=NC(=O)Nc3c4c(cc5c3CCC5)CCC4)NC#N)cnn2C1", "note": "(racemic) [Example 94, N-cyano-N′-((1,2,3,5,6,7-hexahydro-s-indacen-4-yl)carbamoyl)-6,6-dimethyl-6,7-dihydro-5H-pyrazolo[5,1-b][1,3]oxazine-3-sulfonimidamide]", "IC50": 0.36}
{"smiles": "CO[C@@H]1CCOc2c([S@@](=O)(=NC(=O)Nc3c4c(cc5c3CCC5)CCC4)NC#N)cnn2C1", "note": "(single isomer, unassigned) [Example 122]", "IC50": 0.8}
{"smiles": "CCn1nc(C(C)C)c(NC(=O)N=S(N)(=O)c2cnn3c2OCCC3)c1C(C)C", "note": "(single isomer, unassigned) [Example 99]", "IC50": 1.7}
{"smiles": "COC1CCn2ncc(S(N)(=O)=NC(=O)Nc3c4c(cc5c3CCC5)CCC4)c2OC1", "note": "(single isomer, unassigned) [Example 92]", "IC50": 8.2}
{"smiles": "CC1CCc2cc3c(c(NC(=O)N=S(N)(=O)c4cnn5c4OCC(C)(C)C5)c21)CCC3", "note": "(single isomer, unassigned) [Example 135]", "IC50": "> 20"}
